According to ChEMBL document CHEMBL4813944 (Eur J Med Chem, 2021):
Active and inactive are the calls of the source. The rule behind the calls is not given here.

What was measured:
[1] = Cytotoxicity against human SH-SY5Y cells assessed as cell viability at 0.1 uM measured after 24 hrs by calcein-AM staining based fluorescence analysis; settings: read-out: Activity
[2] = Cytotoxicity against human SH-SY5Y cells assessed as cell viability at 1 uM measured after 24 hrs by calcein-AM staining based fluorescence analysis; settings: read-out: Activity
[3] = Cytotoxicity against human SH-SY5Y cells assessed as cell viability at 10 uM measured after 24 hrs by calcein-AM staining based fluorescence analysis; settings: read-out: Activity
SH-SY5Y [4] = assay: Neuroprotective activity against salsolinol-induced neurotoxicity in human SH-SY5Y cells assessed as cell viability at 1 uM measured after 24 hrs by calcein-AM staining based fluorescence analysis (reference value: 70.49 +/-0.51%); format: functional; settings: read-out: Activity
SH-SY5Y [5] = assay: Neuroprotective activity against salsolinol-induced neurotoxicity in human SH-SY5Y cells assessed as cell death at 10 uM measured after 24 hrs by PI staining based analysis (reference value: 100%); format: functional
SH-SY5Y [6] = assay: Inhibition of Salsolinol-induced oxidative stress in human SH-SY5Y cells assessed as superoxide radical formation at 1 uM measured after 24 hrs by DHE staining based fluorescence spectrophotometry (reference value: 100%); format: functional; design: scale not given: the % may be the effect or the level left
SH-SY5Y [7] = assay: Inhibition of salsolinol-induced apoptosis in human SH-SY5Y cells assessed as caspase 3/7 activity at 1 uM incubated for 24 hrs using Ac-DEVD-AMC as substrate by fluorescence analysis (reference value: 100%); format: functional; design: scale not given: the % may be the effect or the level left
SH-SY5Y [8] = assay: Inhibition of salsolinol-induced apoptosis in human SH-SY5Y cells assessed as caspase 3/7 activity at 10 uM incubated for 24 hrs using Ac-DEVD-AMC as substrate by fluorescence analysis (reference value: 100%); format: functional; design: scale not given: the % may be the effect or the level left
[9] = Inhibition of salsolinol-induced mitochondrial depolarization in human SH-SY5Y cells assessed as mitochondrial membrane potential at 10 uM measured after 24 hrs by JC-1 staining based flow cytometry (reference value: 45.3 +/-2.09%); format: functional; design: scale not given: the % may be the effect or the level left
[10] = Inhibition of salsolinol-induced mPTP opening in human SH-SY5Y cells assessed as fold change in fluorescence intensity at 1 uM measured after 24 hrs by calcein AM/CoCl2 based fluorescence microscopic analysis (reference value: 0.49 +/-0.02); format: functional
[11] = Inhibition of salsolinol-induced mPTP opening in human SH-SY5Y cells assessed as fold change in fluorescence intensity at 10 uM measured after 24 hrs by calcein AM/CoCl2 based fluorescence microscopic analysis (reference value: 0.49 +/-0.02); format: functional
SH-SY5Y [12] = assay: Inhibition of salsolinol-induced apoptosis in human SH-SY5Y cells assessed as appearance of necrotic cells along with early and late apoptotic cells at 10 uM measured after 24 hrs by AO/PIstaining based fluorescence microscopy; format: functional, cell-based
SH-SY5Y [13] = assay: Neuroprotective activity against glutamate-induced neurotoxicity in human SH-SY5Y cells assessed as cell death at 10 uM measured after 24 hrs by PI staining based assay (reference value: 100%); format: functional
SH-SY5Y [14] = assay: Inhibition of glutamate-induced oxidative stress in human SH-SY5Y cells assessed as superoxide radical formation at 10 uM measured after 4 hrs by DHE staining based fluorescence spectrophotometry (reference value: 100%); format: functional; design: scale not given: the % may be the effect or the level left
SH-SY5Y [15] = assay: Inhibition of glutamate-induced apoptosis in human SH-SY5Y cells assessed as caspase 3/7 activity at 10 uM incubated for 1 hr using Ac-DEVD-AMC as substrate by fluorescence analysis (reference value: 100%); format: functional; design: scale not given: the % may be the effect or the level left
[16] = Inhibition of glutamate-induced mitochondrial depolarization in human SH-SY5Y cells assessed as mitochondrial membrane potential at 10 uM incubated for 1 hr by JC10 dye based fluorescence analysis (reference value: 31.2 +/-4.6%); format: functional; design: scale not given: the % may be the effect or the level left
SH-SY5Y [17] = assay: Inhibition of Salsolinol-induced oxidative stress in human SH-SY5Y cells assessed as superoxide radical formation at 10 uM measured after 24 hrs by DHE staining based fluorescence spectrophotometry (reference value: 100%); format: functional; design: scale not given: the % may be the effect or the level left
SH-SY5Y [18] = assay: Inhibition of Salsolinol-induced oxidative stress in human SH-SY5Y cells assessed as reduction in superoxide radical formation at 1 uM measured after 24 hrs by DHE staining based fluorescence microscopy; format: functional, cell-based
SH-SY5Y [19] = assay: Inhibition of salsolinol-induced mitochondrial depolarization in human SH-SY5Y cells assessed as recovery of mitochondrial membrane potential measured after 24 hrs by JC-1 staining based flow cytometry; format: functional, cell-based
SH-SY5Y [20] = assay: Neuroprotective activity against glutamate-induced neurotoxicity in human SH-SY5Y cells assessed as reduction in cell death at 0.1 to 1 uM measured after 24 hrs by PI staining based assay; format: functional; settings: dose 0.1-1 µM
SH-SY5Y [21] = assay: Neuroprotective activity against salsolinol-induced neurotoxicity in human SH-SY5Y cells assessed as cell viability at 0.5 uM measured after 24 hrs by calcein-AM staining based fluorescence analysis (reference value: 70.49 +/-0.51%); format: functional; settings: read-out: Activity
SH-SY5Y [22] = assay: Neuroprotective activity against salsolinol-induced neurotoxicity in human SH-SY5Y cells assessed as cell death at 0.5 uM measured after 24 hrs by PI staining based analysis (reference value: 100%); format: functional
[23] = Inhibition of salsolinol-induced mPTP opening in human SH-SY5Y cells assessed as fold change in fluorescence intensity at 0.5 uM measured after 24 hrs by calcein AM/CoCl2 based fluorescence microscopic analysis (reference value: 0.49 +/-0.02); format: functional
SH-SY5Y [24] = assay: Inhibition of glutamate-induced apoptosis in human SH-SY5Y cells assessed as caspase 3/7 activity at 0.5 uM incubated for 1 hr using Ac-DEVD-AMC as substrate by fluorescence analysis (reference value: 100%); format: functional; design: scale not given: the % may be the effect or the level left
SH-SY5Y [25] = assay: Neuroprotective activity against salsolinol-induced neurotoxicity in human SH-SY5Y cells assessed as cell viability at 100 uM measured after 24 hrs by calcein-AM staining based fluorescence analysis (reference value: 70.49 +/-0.51%); format: functional; settings: read-out: Activity
SH-SY5Y [26] = assay: Neuroprotective activity against salsolinol-induced neurotoxicity in human SH-SY5Y cells assessed as cell viability at 1000 uM measured after 24 hrs by calcein-AM staining based fluorescence analysis (reference value: 70.49 +/-0.51%); format: functional; settings: read-out: Activity
SH-SY5Y [27] = assay: Neuroprotective activity against salsolinol-induced neurotoxicity in human SH-SY5Y cells assessed as cell death at 100 uM measured after 24 hrs by PI staining based analysis (reference value: 100%); format: functional
SH-SY5Y [28] = assay: Neuroprotective activity against salsolinol-induced neurotoxicity in human SH-SY5Y cells assessed as cell death at 1000 uM measured after 24 hrs by PI staining based analysis (reference value: 100%); format: functional
SH-SY5Y [29] = assay: Inhibition of Salsolinol-induced oxidative stress in human SH-SY5Y cells assessed as superoxide radical formation at 1000 uM measured after 24 hrs by DHE staining based fluorescence spectrophotometry (reference value: 100%); format: functional; design: scale not given: the % may be the effect or the level left
[30] = Cytotoxicity against human SH-SY5Y cells assessed as cell viability at 100 uM measured after 24 hrs by calcein-AM staining based fluorescence analysis; settings: read-out: Activity
[31] = Cytotoxicity against human SH-SY5Y cells assessed as cell viability at 1000 uM measured after 24 hrs by calcein-AM staining based fluorescence analysis; settings: read-out: Activity
SH-SY5Y [32] = assay: Inhibition of Salsolinol-induced oxidative stress in human SH-SY5Y cells assessed as reduction in superoxide radical formation measured after 24 hrs by DHE staining based fluorescence spectrophotometry; format: functional, cell-based; settings: dose 10-1000 µM
SH-SY5Y [33] = assay: Inhibition of Salsolinol-induced oxidative stress in human SH-SY5Y cells assessed as reduction in superoxide radical formation at 1000 uM measured after 24 hrs by DHE staining based fluorescence microscopy; format: functional, cell-based
SH-SY5Y [34] = assay: Inhibition of salsolinol-induced apoptosis in human SH-SY5Y cells assessed as caspase 3/7 activity at 1000 uM incubated for 24 hrs using Ac-DEVD-AMC as substrate by fluorescence analysis (reference value: 100%); format: functional; design: scale not given: the % may be the effect or the level left
[35] = Inhibition of salsolinol-induced mitochondrial depolarization in human SH-SY5Y cells assessed as mitochondrial membrane potential at 100 uM measured after 24 hrs by JC-1 staining based flow cytometry (reference value: 45.3 +/-2.09%); format: functional; design: scale not given: the % may be the effect or the level left
[36] = Inhibition of salsolinol-induced mitochondrial depolarization in human SH-SY5Y cells assessed as mitochondrial membrane potential at 1000 uM measured after 24 hrs by JC-1 staining based flow cytometry (reference value: 45.3 +/-2.09%); format: functional; design: scale not given: the % may be the effect or the level left
[37] = Inhibition of salsolinol-induced mPTP opening in human SH-SY5Y cells assessed as fold change in fluorescence intensity at 1000 uM measured after 24 hrs by calcein AM/CoCl2 based fluorescence microscopic analysis (reference value: 0.49 +/-0.02); format: functional
SH-SY5Y [38] = assay: Inhibition of salsolinol-induced apoptosis in human SH-SY5Y cells assessed as appearance of necrotic cells along with early and late apoptotic cells at 1000 uM measured after 24 hrs by AO/PIstaining based fluorescence microscopy; format: functional, cell-based

C=C(C(=O)OCc1cn([C@@H]2O[C@H](COC(C)=O)[C@@H](OC(C)=O)[C@H](OC(C)=O)[C@H]2OC(C)=O)nn1)[C@@H]1CC[C@]2(COC(C)=O)CC[C@]3(C)[C@H](CC[C@@H]4[C@@]5(C)CC[C@H](OC(C)=O)C(C)(C)[C@@H]5CC[C@]43C)[C@@H]12
viability at 24 h, 0.1 µM [1]: 115%
viability at 24 h, 1 µM [2]: 138%
viability at 24 h, 10 µM [3]: 128%
viability at 1 µM (SH-SY5Y [4]): 91.7%
Activity (SH-SY5Y [5]): 62.6%
Activity (SH-SY5Y [6]): 74.5%
Activity (SH-SY5Y [7]): 81.8%
Activity (SH-SY5Y [8]): 79.5%
Activity [9]: 89.2%
fold change (FC) [10]: 0.75
fold change (FC) [11]: 1.2
Activity (SH-SY5Y [12]): Active
Activity (SH-SY5Y [13]): 75.1%
Activity (SH-SY5Y [14]): 82.2%
Activity (SH-SY5Y [15]): 90.9%
Activity [16]: 74.7%
Activity (SH-SY5Y [17]): 77.2%
inhibition (SH-SY5Y [18]): Active
inhibition (SH-SY5Y [19]): Dose-Dependent Effect
Activity (SH-SY5Y [20]): Active

C/C=C/C[C@@H](C)[C@@H](O)[C@H]1C(=O)N[C@@H](CC)C(=O)N(C)CC(=O)N(C)[C@@H](CC(C)C)C(=O)N[C@@H](C(C)C)C(=O)N(C)[C@@H](CC(C)C)C(=O)N[C@@H](C)C(=O)N[C@H](C)C(=O)N(C)[C@@H](CC(C)C)C(=O)N(C)[C@@H](CC(C)C)C(=O)N(C)[C@@H](C(C)C)C(=O)N1C [CYCLOSPORINE]
viability at 0.5 µM (SH-SY5Y [21]): 99.3%
Activity (SH-SY5Y [22]): 74.5%
fold change (FC) [23]: 0.67
Activity (SH-SY5Y [24]): 89.1%

C=C(C(=O)OCc1cn([C@@H]2O[C@H](COC(C)=O)[C@H](OC(C)=O)[C@H](OC(C)=O)[C@H]2OC(C)=O)nn1)[C@@H]1CC[C@]2(COC(C)=O)CC[C@]3(C)[C@H](CC[C@@H]4[C@@]5(C)CC[C@H](OC(C)=O)C(C)(C)[C@@H]5CC[C@]43C)[C@@H]12
viability at 24 h, 0.1 µM [1]: 140%
viability at 24 h, 1 µM [2]: 139%
viability at 24 h, 10 µM [3]: 130%
viability at 1 µM (SH-SY5Y [4]): 90.9%
Activity (SH-SY5Y [5]): 68.7%

CC1(C)CC[C@]23CC[C@]4(C)[C@H](CC[C@@H]5[C@@]6(C)CC(C#N)=C(O)C(C)(C)[C@@H]6CC[C@]54C)[C@H]2[C@H]1OC3
viability at 24 h, 0.1 µM [1]: 93.1%
viability at 24 h, 1 µM [2]: 93.8%
viability at 24 h, 10 µM [3]: 98.8%

CC(=O)N[C@@H](CS)C(=O)O [ACETYLCYSTEINE]
viability at 24 h, 10 µM [3]: 108%
viability at 100 µM (SH-SY5Y [25]): 82.3%
viability at 1000 µM (SH-SY5Y [26]): 89%
Activity (SH-SY5Y [27]): 72.5%
Activity (SH-SY5Y [28]): 68.2%
Activity (SH-SY5Y [29]): 53.8%
viability at 24 h, 100 µM [30]: 114%
viability at 24 h, 1000 µM [31]: 120%
inhibition (SH-SY5Y [32]): Dose-Dependent Effect
inhibition (SH-SY5Y [33]): Active
Activity (SH-SY5Y [34]): 79.3%
Activity [35]: 66.4%
Activity [36]: 69.7%
fold change (FC) [37]: 0.76
Activity (SH-SY5Y [38]): Active

CC(=O)OC[C@H]1O[C@@H](n2cc(CO)nn2)[C@H](OC(C)=O)[C@@H](OC(C)=O)[C@H]1OC(C)=O
viability at 24 h, 0.1 µM [1]: 109%
viability at 24 h, 1 µM [2]: 107%
viability at 24 h, 10 µM [3]: 100%
